From patent US20250243215A1, “INHIBITORS OF EPIDERMAL GROWTH FACTOR RECEPTOR” (National Health Research Institutes, priority 2024, published 2025)

What was measured:
[1] = system: A431 (wild-type EGFR overexpressing) cells; assay: Cell proliferation assay (MTS), A431; type: cell-based; settings: Homo sapiens, A-431, 96 h exposure
Protocol: (§1) A431 (wild-type EGFR overexpressing) and H1975 (double-mutant overexpressing) cells were exposed to test compounds for 96 h and the cell proliferation was determined by the MTS method.

[2] = system: H1975 (double-mutant overexpressing) cells; assay: Cell proliferation assay (MTS), H1975; type: cell-based; settings: Homo sapiens, NCI-H1975, 96 h exposure
Protocol: as §1

| IC50 [1] [µM] | IC50 [2] [nM] | SMILES |
| --- | --- | --- |
| 0.2 to 5 | 200 to 5000 | C=CC(=O)Nc1cc(-c2c(-c3ccccc3)oc3ncnc(NCCc4ccc(O)cc4)c23)ccc1N(C)CCN(C)C [Compound 37, N-[2-{[2-(Dimethylamino)ethyl](methyl)amino}-5-(4-{[2-(4-hydroxyphenyl)ethyl]amino}-6-phenylfuro[2,3-d]pyrimidin-5-yl)phenyl]prop-2-enamide] |
| > 5 | 200 to 5000 | C=CC(=O)Nc1cc(-c2c(-c3ccccc3)oc3ncnc(NCCc4ccc(O)cc4)c23)ccc1N(C)CCN1CCN(C)CC1 [Compound 40, N-[5-(4-{[2-(4-Hydroxyphenyl)ethyl]amino}-6-phenylfuro[2,3-d]pyrimidin-5-yl)-2-{methyl [2-(4-methylpiperazin-1-yl)ethyl]amino}phenyl]prop-2-enamide] |
| 0.2 to 5 | < 200 | C=CC(=O)Nc1cc(-c2c(-c3ccccc3)oc3ncnc(N[C@H]4CC[C@H](O)CC4)c23)ccc1N(C)CCN(C)C [Compound 55, N-(2-{[2-(Dimethylamino)ethyl](methyl)amino}-5-{4-[(4-hydroxy-cyclohexyl)amino]-6-phenylfuro[2,3-d]pyrimidin-5-yl}phenyl)prop-2-enamide] |
| 0.2 to 5 | < 200 | C=CC(=O)Nc1cc(-c2c(-c3ccc(F)cc3)oc3ncnc(NC4CCCC4)c23)ccc1N(C)CCN(C)C [Compound 42, N-(5-[4-(Cyclopentylamino)-6-(4-fluorophenyl)furo[2,3-d]pyrimi-din-5-yl]-2-{[2-(dimethylamino)ethyl](methyl)amino}phenyl)prop-2-enamide] |
| 0.2 to 5 | < 200 | C=CC(=O)Nc1cccc(-c2c(-c3ccccc3)oc3ncnc(N4CCC4)c23)c1 [Compound 61, N-{3-[4-(Azetidin-1-yl)-6-phenylfuro[2,3-d]pyrimidin-5-yl]phenyl}prop-2-enamide] |
| 0.2 to 5 | 200 to 5000 | C=CC(=O)Nc1cc(-c2c(-c3ccccc3)oc3ncnc(NCCc4ccc(O)cc4)c23)ccc1N1CCN(C)CC1 [Compound 36, N-[5-(4-{[2-(4-Hydroxyphenyl)ethyl]amino}-6-phenylfuro[2,3-d]pyrimidin-5-yl)-2-(4-methylpiperazin-1-yl)phenyl]prop-2-enamide] |
| 0.2 to 5 | < 200 | C=CC(=O)Nc1cc(-c2c(-c3ccccc3)oc3ncnc(N[C@H]4CC[C@@H](O)CC4)c23)ccc1N(C)CCN(C)C [Compound 52, N-(2-{[2-(Dimethylamino)ethyl](methyl)amino}-5-{4-[(4-hydroxy-cyclohexyl)amino]-6-phenylfuro[2,3-d]pyrimidin-5-yl}phenyl)prop-2-enamide] |
| 0.2 to 5 | < 200 | C=CC(=O)Nc1cc(-c2c(-c3ccccc3)oc3ncnc(NCCc4ccc(S(N)(=O)=O)cc4)c23)ccc1N(C)CCN(C)C [Compound 41, N-(5-[4-({2-[4-(Aminosulfonyl)phenyl]ethyl}amino)-6-phenylfuro-[2,3-d]pyrimidin-5-yl]-2-{[2-(dimethylamino)ethyl](methyl)amino}phenyl)prop-2-enamide] |
| 0.2 to 5 | < 200 | C=CC(=O)Nc1cc(-c2c(-c3ccccc3)oc3ncnc(N[C@@H]4CCCC[C@@H]4O)c23)ccc1N(C)CCN(C)C [Compound 53, N-[2-{[2-(Dimethylamino)ethyl](methyl)amino}-5-(4-{[(1R,2S)-2-hydroxycyclohexyl]amino}-6-phenylfuro[2,3-d]pyrimidin-5-yl)phenyl]prop-2-enamide] |
| 0.2 to 5 | < 200 | C=CC(=O)Nc1cc(-c2c(-c3ccccc3)oc3ncnc(Nc4ccccc4)c23)ccc1N(C)CCN(C)C [Compound 43, N-(2-{[2-(Dimethylamino)ethyl](methyl)amino}-5-[6-phenyl-4-(phenylamino)furo[2,3-d]pyrimidin-5-yl]phenyl)prop-2-enamide] |
| > 5 | 200 to 5000 | C=CC(=O)Nc1cc(-c2c(-c3ccccc3)oc3ncnc(NC4CCCC4)c23)ccc1N1CC[C@@H](N(C)C)C1 [Compound 28, N-{5-[4-(Cyclopentylamino)-6-phenylfuro[2,3-d]pyrimidin-5-yl]-2-[(3R)-3-(dimethylamino)pyrrolidin-1-yl]phenyl}prop-2-enamide] |
